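Results reflect a 48-hour exposure of cells in 96-well plates to compound at five concentrations. GI50 = concentration required for 50% inhibition of growth.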 Active and inactive are the calls of the source. No stated cut-off is given here; in the data, active = GI50 up to about 1.1 µM and inactive = higher.
Key:
Assay in all cases: NCI tumour cell line growth inhibition, 48 h
UO-31 = tested on: UO-31
HCT-116 = tested on: HCT-116
MOLT-4 = tested on: MOLT-4
MDA-MB-231 = tested on: MDA-MB-231
UACC-257 = tested on: UACC-257
SF-268 = tested on: SF-268
Hs-578T = tested on: Hs-578T
NCI-H460 = tested on: NCI-H460
OVCAR-5 = tested on: OVCAR-5
A549 = tested on: A549
OVCAR-8 = tested on: OVCAR-8
M14 = tested on: M14
CCRF-CEM = tested on: CCRF-CEM
786-0 = tested on: 786-0
A498 = tested on: A498
TK-10 = tested on: TK-10
SF-295 = tested on: SF-295
CAKI-1 = tested on: CAKI-1
HOP-92 = tested on: HOP-92
COLO 205 = tested on: COLO 205

Measured: GI50

COc1ccc(C2c3c(-c4ccccc4)nn(-c4ccccc4)c3Oc3ncn(N)c(=N)c32)cc1OC (stereo not given)
inactive: UO-31 1.68 µM | HCT-116 1.67 µM | MOLT-4 3.41 µM | MDA-MB-231 1.71 µM | UACC-257 1.95 µM | SF-268 3.03 µM | Hs-578T 1.97 µM | NCI-H460 1.71 µM | OVCAR-5 3.9 µM | A549 2.24 µM | OVCAR-8 2.1 µM | M14 2.04 µM | CCRF-CEM 2.56 µM | 786-0 1.67 µM | A498 7.16 µM | TK-10 1.95 µM | SF-295 2.05 µM | CAKI-1 1.86 µM | HOP-92 2.33 µM | COLO 205 2.23 µM

CCOC(=O)CCC(NC(=O)c1ccc(OCc2ccc3nc(-c4ccccc4)c(Cl)nc3c2)cc1)C(=O)OCC (stereo not given)
inactive: UO-31 > 31.6 µM | HCT-116 > 31.6 µM | MOLT-4 > 31.6 µM | MDA-MB-231 24.3 µM | UACC-257 > 31.6 µM | SF-268 15 µM | Hs-578T 14.9 µM | NCI-H460 > 31.6 µM | OVCAR-5 > 31.6 µM | A549 19.5 µM | OVCAR-8 14.2 µM | M14 > 31.6 µM | CCRF-CEM > 31.6 µM | 786-0 16.6 µM | A498 36.1 µM | TK-10 16.4 µM | SF-295 22 µM | CAKI-1 > 69 µM | HOP-92 15.6 µM | COLO 205 > 100 µM

COc1ccc(/C=C/c2cc(=O)cc(/C=C/c3ccc(OC)c(O)c3)o2)cc1O
inactive: UO-31 3.83 µM | HCT-116 2.43 µM | MOLT-4 2.24 µM | MDA-MB-231 2.05 µM | UACC-257 2.04 µM | SF-268 3.02 µM | Hs-578T 3.5 µM | NCI-H460 2.21 µM | OVCAR-5 9.4 µM | A549 3.14 µM | OVCAR-8 2.91 µM | M14 2.31 µM | CCRF-CEM 2.82 µM | 786-0 3.06 µM | A498 3.53 µM | TK-10 4.26 µM | SF-295 3.52 µM | CAKI-1 3.55 µM | HOP-92 3.39 µM | COLO 205 11.2 µM
